Assay results taken from patent US20220354957A1, “PEPTIDES TARGETING MACROPHAGES, AND CONJUGATES, COMPOSITIONS, AND USES THEREOF” (Twinpig Biolab, Inc., priority 2021, published 2022).

How the values were obtained:
M2 macrophages = assay: Apoptosis and caspase-3 expression in THP-1-derived macrophages; format: cell-based, human
Description: THP-1 cells were differentiated into macrophages by 24 h incubation with 100 nM PMA and polarized in M2 macrophages by incubation with 20 ng/ml of IL-4 and 20 ng/ml of IL-13 for 72 h. Polarized cells were treated with increasing concentrations of TAMpep and fragments of TAMpep (0.05-20 μM) for 24 h. Cell viability was analyzed using the CCK-8 assay: CCK-8 reagent (Enzo Life Sciences) was added to each well; incubation was continued for 2 hours, and absorbance was measured at 450 nm with a microplate reader (Molecular Devices).
THP-1 cells were seeded on cover glasses in 24-well plates and differentiated into M0, M1 and M2 macrophages. Cells were treated with 1 μM TAMpepK and MpepK for 1 h and incubated for 24 h after remove of peptides. Cells were washed, fixed with 4% paraformaldehyde for 10 minutes at […] and blocked with 0.1% normal goat serum for 1 hour. The cover glasses were then incubated with anti-caspase-3 antibody (1:50, rabbit polyclonal, Abcam) overnight at 4° C., and then washed and stained with Alexa 594-labelled goat anti-rabbit lgG (1:500, Invitrogen) at 37° C. for 1 hr. The cover glasses were mounted in Vectashield mounting medium (Vector Laboratories) with DAPI to visualize nuclei. Images photographed by fluorescence microscope (Leica).

[1] = test system: murine melanoma cells (B16F10 cell line); assay: Mouse model of melanoma (subcutaneous B16F10); format: in vivo; conditions: vs PBS group
Source text: (§1) BALB/c and C57BL/6 (B6) wild-type mice were purchased from DBL. For the subcutaneous tumor model of melanoma and prostate cancer, CT26 (3×10^5 cells/mouse), B16F10 (1×10^6 cells/mouse) and TRAMP-C2 cells (1×10^6 cells/mouse) were mixed with Matrigel matrix (Corning) and inoculated subcutaneously into the right flank of the mice, and 4T1 (1×10^5 cells/mouse) cells mixed with Matrigel matrix and inoculated into a 4th mammary fat pad of the mice. TAMpepK, and MpepK peptides (200 nmol/kg) were injected intraperitoneally every 3 days, beginning at day 7 after tumor inoculation, and tumor volume was measured by electronic caliper. All tumor tissues were harvested after the end of the study and tumor weight was measured by an electronic balance.

[2] = test system: macrophages treated with TCM; assay: Cell viability of macrophages differentiated by TCM; format: cell-based, human; conditions: 1 μM
TRAMP-C2 cells = assay: Mouse model of prostate cancer (subcutaneous TRAMP-C2); format: in vivo
Source text: as §1
Cells were harvested and lysed in PRO-PREP protein extraction solution (iNtRON, Bio Inc, Sungnam, Korea). Protein concentrations were measured with a Bradford Protein Assay Reagent kit (Bio-Rad, Richmond, CA, USA). Proteins were fractionated by 10% SDS-polyacrylamide gels electrophoresis (PAGE), and transferred onto polyvinylidene difluoride (PVDF) membranes. These were incubated with anti-arginase 1, anti-CD206, anti-caspase 3, anti-E-cadherin, anti-fibronectin, anti-PCNA, anti-TGF-β, anti-MMP9, and anti-β-actin Ab as primary antibodies. Goat anti-rabbit horseradish peroxidase-conjugated IgG or goat anti-mouse horseradish peroxidase-conjugated IgG (Abcam, Cambridge, Mass., USA) served as secondary antibodies. Protein bands were detected with a chemiluminescence reagent kit (SurModics).

[3] = test system: lung fibrosis induced by bleomycin; assay: Mouse model of lung fibrosis (bleomycin); format: in vivo
Description: For lung fibrosis mouse model, C57BL/6 (B6) wild-type mice were lightly anesthetized with 2.5% isoflurane and administered bleomycin (BLM, 2 mg/kg) via oropharyngeal aspiration (OA) using a micropipette. After 14 days, the mice were intraperitoneally injected with MpepK (200 nmol/kg) every other day. The animal studies were approved by the Institutional Animal Care and Use Committee of Kyung Hee University (KHUASP(SE)-20-530 for melanoma and 20-382 for prostate cancer). All animals were maintained in a specific pathogen-free environment on a 12-h light/dark cycle with free access to food and water. Nesting sheets were used for enrichment. After the experiments were terminated, all mice were euthanized using isoflurane and cervical dislocation.
Total RNA was extracted using Easy-Blue reagent. Concentrations of RNA were determined and quantified by measuring absorbance at 260 and 280 nm with a spectrophotometer. […] PCR conditions were forty-five cycles at 95° C. for 5 min, followed by 95° C. for 10 sec, 60° C. for 10 sec and 72° C. for 10 sec. mRNA expression were quantified in triplicate. Data were measured with CFX Software (Bio-Rad). […]
The lung tissues of lung fibrosis mouse model were fixed in 10% neutral buffered formalin and embedded in paraffin. […] The sections were examined and evaluated randomly using standard light microscopy (Olympus).

Hepa1-6 cells = assay: Mouse model of hepatocellular carcinoma (subcutaneous Hepa1-6); format: in vivo
Description: C57BL/6 (B6) wild-type mice purchased from DBL. For the subcutaneous tumor model of hepatocellular carcinoma, Hepa1-6 cells were mixed with Matrigel matrix (Corning) and inoculated subcutaneously into the right flank (4×10^5 cells/mouse) of the mice. MpepK peptide (100, 200 and 400 nmol/kg) were injected intraperitoneally every 3 days, beginning at day 12 after tumor inoculation and tumor volume was measured by electronic caliper. All animals were maintained in a specific pathogen-free environment on a 12-h light/dark cycle with free access to food and water. After the experiments were terminated, all mice were euthanized using isoflurane and cervical dislocation.

[4] = B16F10 in C57BL6J mice, 200 nmol/kg i.p. every 3 days
[5] = TRAMP-C2 in C57BL6J mice, i.p. every 3 days, vs PBS group

For `CC[C@H](C)[C@H](NC(=O)[C@H](CC(C)C)NC(=O)[C@H](C)NC(=O)[C@@H]1CCCN1C(=O)[C@H](CC(C)C)NC(=O)CNC(=O)[C@@H](NC(=O)[C@@H](NC(=O)[C@H](CC(C)C)NC(=O)[C@@H](NC(C)=O)C(C)C)[C@@H](C)O)[C@@H](C)O)C(=O)N[C@@H](CO)C(=O)N[C@@H](Cc1c[nH]c2ccccc12)C(=O)N[C@H](C(=O)N[C@@H](CCCCN)C(=O)N[C@@H](CCCNC(=N)N)C(=O)N[C@@H](CCCCN)C(=O)N[C@@H](CCCNC(=N)N)C(=O)N[C@@H](CCC(N)=O)C(=O)N[C@@H](CCC(N)=O)C(=O)NCC(=O)NCC(=O)NCC(=O)NCC(=O)N[C@@H](CO)C(=O)N[C@H](CCCCN)C(=O)N[C@H](CC(C)C)C(=O)N[C@H](C)C(=O)N[C@H](CCCCN)C(=O)N[C@H](CC(C)C)C(=O)N[C@H](C)C(=O)N[C@H](CCCCN)C(=O)N[C@H](CCCCN)C(=O)N[C@H](CC(C)C)C(=O)N[C@H](C)C(=O)N[C@H](CCCCN)C(=O)N[C@H](CC(C)C)C(=O)N[C@H](C)C(=O)N[C@H](CCCCN)C(=O)O)[C@@H](C)CC` [MpepK], the “expression of caspase-3 in M2 macrophages compared to other subtype macrophages” value (M2 macrophages; 1 μM, 1 h, then 24 h) was “increased”, the “apoptosis in M2 macrophages compared to M0 and M1 macrophages” value (M2 macrophages; 0.01-10 μM) was “induced apoptosis” and the tumor volume [1, 4] was “reduced”. For the same compound, the tumor weight [1, 4] was “reduced”, the survival rate ([1]; B16F10 melanoma model) was “extended” and the “apoptosis in macrophages treated with TCM” value [2] was “induced apoptosis”. The tumor volume (TRAMP-C2 cells; [5]) was “significantly reduced”, the tumor weight (TRAMP-C2 cells; [5]) was “significantly reduced” and the “body weight of mice” value (TRAMP-C2 cells; TRAMP-C2 prostate cancer model) was “did not significantly change”. For the same compound, the “E-cadherin (epithelial cell marker) in tumor tissues” value (TRAMP-C2 cells; prostate cancer model) was “increased”, the “expression of PCNA (proliferative marker) in tumor tissues” value (TRAMP-C2 cells; prostate cancer model) was “reduced” and the “expression of TGF-β and MMP9 in tumor tissues” value (TRAMP-C2 cells; prostate cancer model) was “reduced”. The “vimentin and fibronectin (mesenchymal marker) in tumor tissues” value (TRAMP-C2 cells; prostate cancer model) was “reduced”, the “lung fibrosis induced by bleomycin” value ([3]; 200 nmol/kg i.p. every other day, H&E) was “decreased” and the “gene expression related to fibrosis such as fos12, collagen type 1 and fibronectin 1” value ([3]; compared to PBS) was “significantly reduced”. The body weight change (Hepa1-6 cells; Hepa1-6 model, 100, 200 and 400 nmol/kg i.p. every 3 days) was “no significant difference”, the survival rate (Hepa1-6 cells; Hepa1-6 model, 100, 200 and 400 nmol/kg, vs PBS group) was “significantly extended” and the tumor volume (Hepa1-6 cells; Hepa1-6 model, all doses (100, 200 and 400 nmol/kg) i.p. every 3 days, vs PBS group) was “significantly reduced”.
